For 21 compounds, IC50 results are on record in US20160287589A1, “SUBSTITUTED-IMIDAZOPYRIDAZINES” (BAYER PHARMA AKTIENGESELLSCHAFT, priority 2013, published 2016).

For orientation: IC50 means the concentration that inhibits the measured activity by half. Read a low IC50 as greater potency in that assay.

Experiment [1] addresses T1, MKNK1 (Homo sapiens, UniProt Q9BUB5, T385D).
T1 construct: GST (N); purchased Carna Biosciences 02-145; host or cells: insect cells (baculovirus expression system)
Nature of the experiment: MKNK1 kinase high ATP assay (TR-FRET-based). Type of experiment: biochemical. As to conditions: 2 mM ATP, 15 min preincubation. The method, boiled down:
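GST-tagged full-length human MKNK1 (aa 1-424, T344D) from insect cells, preincubated with compound 15 min at 22 °C. Reaction 30 min at 22 °C with 2 mM ATP and 0.06 μM biotinylated peptide in HEPES pH 7.5, Mg2+, DTT. Phosphopeptide detected by TR-FRET (665/622 ratio) with anti-pS6 (pSer236) antibody; normalised to no-inhibitor and no-enzyme controls.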
In general terms: TR-FRET usually uses a lanthanide donor and a delayed reading to cut background.

Experiment [2] addresses T1, MKNK1. Nature of the experiment: MKNK1 kinase assay (MKNK1 TR-FRET assay). In kind it is biochemical. As to conditions: 10 μM ATP, 15 min preincubation.

T1 sequence (Q9BUB5 1-424 isoform Q9BUB5-2 T344D): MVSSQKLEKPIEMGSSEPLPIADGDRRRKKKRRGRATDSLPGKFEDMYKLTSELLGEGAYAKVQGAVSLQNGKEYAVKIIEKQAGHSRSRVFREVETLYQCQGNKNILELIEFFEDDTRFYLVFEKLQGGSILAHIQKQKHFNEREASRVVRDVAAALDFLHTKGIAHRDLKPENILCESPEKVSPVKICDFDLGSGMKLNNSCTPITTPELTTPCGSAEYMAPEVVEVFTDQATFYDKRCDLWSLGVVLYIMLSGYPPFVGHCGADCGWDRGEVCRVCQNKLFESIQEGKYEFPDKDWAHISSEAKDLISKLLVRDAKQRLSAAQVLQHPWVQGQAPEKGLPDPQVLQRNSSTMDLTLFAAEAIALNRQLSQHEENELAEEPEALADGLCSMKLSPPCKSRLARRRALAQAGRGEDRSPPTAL

Turning to `CC1(C)CN(c2nccc3oc(-c4cnc5ccc(OCCCS(C)(=O)=O)nn45)cc23)CCN1` [III-131, 3-[4-(3,3-dimethylpiperazin-1-yl)furo[3,2-c]pyridin-2-yl]-6-[3-(methylsulfonyl)propoxy] imidazo[1,2-b]pyridazine], the IC50 at MKNK1 [1] (Table 2c) amounted to 7 nM; at MKNK1 [2] (Table 1c) it was 11.9 nM.

Turning to `C[C@H](N)COc1ccc2ncc(-c3cc4c(N(C)CCCO)nccc4o3)n2n1` [III-20, 3-{[2-(6-{[(2S)-2-Aminopropyl]oxy}imidazo[1,2-b]pyridazin-3-yl)furo[3,2-c]pyridin-4-yl](methyl)amino}propan-1-ol], the IC50 at MKNK1 [1] (Table 2c) was 10.5 nM; against MKNK1 [2] (Table 1c) it was 3.9 nM.

In the case of `CCN(CCOC)c1cccc2oc(-c3cnc4ccc(OC[C@H](C)N)nn34)cc12` [II-24, 2-(6-{[(2S)-2-Aminopropyl]oxy}imidazo[1,2-b]pyridazin-3-yl)-N-ethyl-N-(2-methoxyethyl)-1-benzofuran-4-amine], the IC50 against MKNK1 [1] (Table 2b) was 3.2 nM; on MKNK1 [2] (Table 1b) it was 3.3 nM.

As for `O=C(C1CC1)N1CCC[C@H]1CCOc1ccc2ncc(-c3cc4ccccc4o3)n2n1` [Example I-1, [(2S)-2-(2-{[3-(1-Benzofuran-2-yl)imidazo[1,2-b]pyridazin-6-yl]oxy}ethyl)-pyrrolidin-1-yl](cyclopropyl)methanone], the IC50 on MKNK1 [1] (Table 2a) turned out to be 2.3 nM; against MKNK1 [2] (Table 1a), 1 nM.

With `O=C1CC[C@H](COc2ccc3ncc(-c4cc5c(N6CCOCC6)nccc5o4)n3n2)N1` [III-68, (5R)-5-[({3-[4-(Morpholin-4-yl)furo[3,2-c]pyridin-2-yl]imidazo[1,2-b]pyridazin-6-yl}oxy)methyl]pyrrolidin-2-one], the half-maximal inhibitory concentration (IC50) against MKNK1 [1] (Table 2c) came out at 0.7 nM; against MKNK1 [2] (Table 1c), 0.5 nM.

Regarding `CN(CCCN1CCCC1)c1nccc2oc(-c3cnc4ccc(OCCCS(C)(=O)=O)nn34)cc12` [III-47, N-methyl-2-{6-[3-(methylsulfonyl)propoxy]imidazo[1,2-b]pyridazin-3-yl}-N-[3-(pyrrolidin-1-yl)propyl]furo[3,2-c]pyridin-4-amine], the concentration for half-maximal inhibition (IC50) at MKNK1 [1] (Table 2c) stood at 21.2 nM; on MKNK1 [2] (Table 1c) it was 13.6 nM.

Regarding `CC(C)(C)OC(=O)N1CCN(c2nccc3oc(-c4cnc5ccc(OC[C@H]6CCC(=O)N6)nn45)cc23)CC1` [III-70, tert-Butyl 4-[2-(6-{[(2R)-5-oxopyrrolidin-2-yl]methoxy}imidazo[1,2-b]pyridazin-3-yl)furo[3,2-c]pyridin-4-yl]piperazine-1-carboxylate], the IC50 is 13.5 nM at MKNK1 [1] (Table 2c) and 4.8 nM against MKNK1 [2] (Table 1c).

`CCN(CCOC)c1nccc2oc(-c3cnc4ccc(OC[C@@H](C)N)nn34)cc12` [III-4, 2-(6-{[(2R)-2-Aminopropyl]oxy}imidazo[1,2-b]pyridazin-3-yl)-N-ethyl-N-(2-methoxyethyl)furo[3,2-c]pyridin-4-amine]: the IC50 at MKNK1 [1] (Table 2c) was found to be 0.4 nM; on MKNK1 [2] (Table 1c), 0.6 nM.

On to `O=C(c1ccc(Cl)cc1)N1CCC[C@H]1CCOc1ccc2ncc(-c3cc4ccccc4o3)n2n1` [Example I-63, [(2S)-2-(2-{[3-(1-Benzofuran-2-yl)imidazo[1,2-b]-pyridazin-6-yl]oxy}ethyl)pyrrolidin-1-yl](4-chlorophenyl)methanone], for which the concentration for half-maximal inhibition (IC50) on MKNK1 [1] (Table 2a) stood at 10.1 nM; at MKNK1 [2] (Table 1a), 4 nM.

`C[C@H](CN)Oc1ccc2ncc(-c3cc4c(N5CCOCC5)nccc4o3)n2n1` [III-30, (2R)-2-({3-[4-(Morpholin-4-yl)furo[3,2-c]pyridin-2-yl]imidazo[1,2-b]pyridazin-6-yl}oxy)propan-1-amine]: the IC50 on MKNK1 [1] (Table 2c) was 10.4 nM; on MKNK1 [2] (Table 1c), 5 nM.

On to `C[C@H]1COCCN1c1cccc2oc(-c3cnc4ccc(O[C@H]5C[C@H](N)C5)nn34)cc12` [II-34, trans-3-[(3-{4-[(3S)-3-methylmorpholin-4-yl]-1-benzofuran-2-yl}imidazo[1,2-b]pyridazin-6-yl)oxy]cyclobutanamine], for which the 50% inhibitory concentration (IC50) was found to be 43.2 nM against MKNK1 [1] (Table 2b) and 26.7 nM on MKNK1 [2] (Table 1b).

As to `C[C@H](N)COc1ccc2ncc(-c3cc4c(N5CCOC(C)(C)C5)nccc4o3)n2n1` [III-128, (2S)-1-({3-[4-(2,2-dimethylmorpholin-4-yl)furo[3,2-c]pyridin-2-yl]imidazo[1,2-b]pyridazin-6-yl}oxy)propan-2-amine], the figures for the half-inhibitory concentration (IC50) at MKNK1 [1] (Table 2c) and at MKNK1 [2] (Table 1c) were 11.8 nM and 12.8 nM, respectively.

For the compound `c1cc2oc(-c3cnc4ccc(OC[C@@H]5COCCN5)nn34)cc2c(N2CCOCC2)n1` [III-36, 3-[4-(Morpholin-4-yl)furo[3,2-c]pyridin-2-yl]-6-[(3S)-morpholin-3-ylmethoxy]imidazo[1,2-b]pyridazine], the half-inhibitory concentration (IC50) on MKNK1 [1] (Table 2c) came to 37.3 nM; at MKNK1 [2] (Table 1c), 11.6 nM.

Take `O=C1CC[C@H](COc2ccc3ncc(-c4cc5c(N6CCNCC6)cccc5o4)n3n2)N1` [II-19, (5R)-5-[({3-[4-(Piperazin-1-yl)-1-benzofuran-2-yl]imidazo[1,2-b]pyridazin-6-yl}-oxy)methyl]pyrrolidin-2-one]: the concentration for half-maximal inhibition (IC50) against MKNK1 [1] (Table 2b) and against MKNK1 [2] (Table 1b) was 0.4 nM throughout.

Take `C[C@@H]1COCCN1c1nccc2oc(-c3cnc4ccc(OC[C@@H]5CCC(=O)N5)nn34)cc12` [III-85, (5S)-5-{[(3-{4-[(3R)-3-Methylmorpholin-4-yl]furo[3,2-c]pyridin-2-yl}imidazo[1,2-b]pyridazin-6-yl)oxy]methyl}pyrrolidin-2-one]: the values for the IC50 against MKNK1 [1] (Table 2c) and against MKNK1 [2] (Table 1c) were 5.2 nM and 4.8 nM, respectively.

For the compound `C[C@@H](N)COc1ccc2ncc(-c3cc4c(N5CCOC[C@@H]5C)cccc4o3)n2n1` [II-75, (2R)-1-[(3-{4-[(3S)-3-methylmorpholin-4-yl]-1-benzofuran-2-yl}imidazo[1,2-b]pyridazin-6-yl)oxy]propan-2-amine], the IC50 came out at 25.7 nM on MKNK1 [1] (Table 2b) and 23 nM on MKNK1 [2] (Table 1b).

For `CCN(CCOC)c1nccc2oc(-c3cnc4ccc(O[C@H]5Cc6ccccc6[C@H]5N)nn34)cc12` [III-112, 2-(6-{[(1R,2S)-1-Amino-2,3-dihydro-1H-inden-2-yl]oxy}imidazo[1,2-b]pyridazin-3-yl)-N-ethyl-N-(2-methoxyethyl)furo[3,2-c]pyridin-4-amine], the results for the half-inhibitory concentration (IC50) on MKNK1 [1] (Table 2c) and against MKNK1 [2] (Table 1c) were 88.1 nM and 15.6 nM, respectively.

Consider `CC(C)(C)NC(=O)COc1ccc2ncc(-c3cc4ccccc4o3)n2n1` [Example I-37, 2-{[3-(1-Benzofuran-2-yl)imidazo[1,2-b]pyridazin-6-yl]oxy}-N-tert-butyl-acetamide], for which the IC50 against MKNK1 [1] (Table 2a) came to 70 nM; on MKNK1 [2] (Table 1a), 17 nM.

In the case of `COc1ccc2ncc(-c3cc4c(N5CCOC(C)(C)C5)nccc4o3)n2n1` [III-146, 3-[4-(2,2-dimethylmorpholin-4-yl)furo[3,2-c]pyridin-2-yl]-6-methoxy-imidazo[1,2-b]pyridazine], the values for the half-maximal inhibitory concentration (IC50) at MKNK1 [1] (Table 2c) and against MKNK1 [2] (Table 1c) were 8.7 nM and 27 nM, respectively.

`COc1cccc2oc(-c3cnc4ccc(OC[C@H]5CN(C(=O)C(C)(C)C)CCO5)nn34)cc12` [Example I-21, 1-[(2R)-2-({[3-(4-Methoxy-1-benzofuran-2-yl)imidazo[1,2-b]pyridazin-6-yl]-oxy}methyl)morpholin-4-yl]-2,2-dimethylpropan-1-one]: the IC50 on MKNK1 [1] (Table 2a) came out at 17.7 nM; at MKNK1 [2] (Table 1a), 6.6 nM.

On to `C[C@@H]1COCCN1c1nccc2oc(-c3cnc4ccc(OCCCS(C)(=O)=O)nn34)cc12` [III-58, 3-{4-[(3R)-3-Methylmorpholin-4-yl]furo[3,2-c]pyridin-2-yl}-6-[3-(methyl-sulfonyl)propoxy]imidazo[1,2-b]pyridazine], for which the figures for the IC50 against MKNK1 [1] (Table 2c) and on MKNK1 [2] (Table 1c) were 4.4 nM and 1 nM, respectively.
